Data reported in US20090269365A1, “IMMUNOGENIC VACCINIA PEPTIDES AND METHODS OF USING SAME” (priority 2005, published 2009).

Legend:
Type in all cases: cell-based, human
[1] = test system: vaccinia-specific CD8 CTL clones; conditions: read-out: EC50 in CTL assays
[2] = test system: bulk vaccinia-specific CD8 CTL
[3] = test system: CD4+ T-cells; conditions: humans, Example 2
[4] = test system: bulk vaccinia-specific CD8 CTL; remark: listed apart in the source

Sequence: EEQELLLLY [F3 41-49]
- EC50 [1]: ~10 nM
- IFN-γ secretion by bulk CTL, in words [2]: again detectable

Sequence: KIQNVIIDECY [L1R 127-137]
- CD4+ T-cell reactivity, in words [3]: reacts with CD4+ T-cells

Sequence: NPITKTTSDYQDSDVSQEVR [A33R 157-176]
- CD4+ T-cell reactivity, in words [3]: containing the epitope

Sequence: TKTTSDYQDSDVSQ [A33R 160-173]
- CD4+ T-cell reactivity, in words [3]: epitope region has been further narrowed down

Sequence: VWINNSWKF [D5R 349-357]
- IFN-γ ICC response relative to DMSO background, in words [4]: detection of IFN-γ-bright cells at a level above the background

Sequence: WLKIKRDYL [A50R 395-403]
- net ICC response (peptide minus DMSO) [4]: ~1.55%
- percentage of bulk CTL positive for IFN-γ by ICC [4]: 2.95%

Sequence: YEFRKVKSY [A3L 264-272]
- IFN-γ ICC response relative to DMSO background, in words [4]: positive
- IFN-γ secretion by bulk CTL, in words [2]: positive
